# pIC50: −log10 of the molar value.
# Target: T1, full length active recombinant SYK enzyme (Homo sapiens, UniProt P43405)
# T1 construct: full length active recombinant SYK enzyme (Millipore, Calif.); purchased Millipore
# Assay: Inhibition of Syk tyrosine phosphorylation activity (LANCE TR-FRET)
# Format: biochemical
# Conditions: Table 3; 1 nM SYK, 100 μM ATP; read-out: Syk IC50 code
# Procedure, shortened: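 The reaction is quenched with buffer holding Eu-anti-phosphotyrosine and streptavidin-APC, and detection runs 1 hr at room temperature. TR-FRET is read and IC50s come from non-linear regression.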
row,Compound,pIC50
1,"Nc1nc(Nc2ccc3cn[nH]c3c2)nc2[nH]ccc12 [Example 79, N^2-(1H-indazol-6-yl)-7H-pyrrolo[2,3-d]pyrimidin-2,4-diamine]",6.00 to 7.00
2,"CC(=O)N1CCN(c2ccc(Nc3ncc(F)c(N4CCC(N)CC4)n3)cc2)CC1 [Example 128, 1-(4-(4-(4-(4-aminopiperidin-1-yl)-5-fluoropyrimidin-2-ylamino)phenyl)piperazin-1-yl)ethanone]",< 6.00
3,"CCOC(=O)CC(N)C1CCN(c2nc(Nc3ccc4c(c3)CCC(=O)N4)ncc2F)CC1 (stereo not shown) [Example 134, Ethyl 3-amino-3-(1-(5-fluoro-2-(2-oxo-1,2,3,4-tetrahydroquinolin-6-ylamino)pyrimidin-4-yl)piperidin-4-yl)propanoate]",6.00 to 7.00
4,"CN(C)CCNC(=O)CN1C(=O)CCc2cc(Nc3nc(NC4CCC4)c4cc[nH]c4n3)ccc21 [Example 71, 2-(6-(4-(cyclobutyamino)-7H-pyrrolo[2,3-d]pyrimidine-2-ylamino)-2-oxo-3,4-dihydroquinolin-1(2H)-yl)-N-(2-(dimethylamino)ethyl)acetamide]",6.00 to 7.00
5,"O=C1CNc2nc(Nc3ccc4cn[nH]c4c3)nc(NC3CCC3)c21 [Example 51, 2-(1H-indazol-6-ylamino)-4-(cyclobutylamino)-6,7-dihydropyrrolo[2,3-d]pyrimidin-5-one]",6.00 to 7.00
6,"CN(C(=O)CCO)c1ccc(Nc2nc(NC3CCC3)c3cc[nH]c3n2)cc1 [Example 86, N-(4-(4-(cyclobutylamino)-7H-pyrrolo[2,3-d]pyrimidin-2-ylamino)phenyl)-3-hydroxy-N-methypropanamide]",7.00 to 8.00
7,"CC(=O)N1CCN(c2ccc(Nc3ncc(C(N)=O)c(N4CCC(CNC(N)=O)CC4)n3)cc2)CC1 [Example 130, 2-(4-(4-acetylpiperazin-1-yl)phenylamino)-4-(4-(ureidomethyl)piperidin-1-yl)pyrimidine-5-carboxamide]",< 6.00
8,"CCCCOC(=O)CN(C)S(=O)(=O)c1ccc(Nc2nc(NC3CCC3)c3cc[nH]c3n2)cc1 [Example 53, butyl 2-(4-(4-(cyclobutylamino)-7H-pyrrolo[2,3-d]pyrimidin-2-ylamino)-N-methylphenylsulfonamido)acetate]",6.00 to 7.00
9,"CN(C(=O)CO)c1ccc(Nc2nc(NC3CCC3)c3cc[nH]c3n2)cc1 [Example 74, N-(4-(4-(cyclobutylamino)-7H-pyrrolo[2,3-d]pyrimidin-2-ylamino)phenyl)-2-hydroxy-N-methylacetamide]",7.00 to 8.00
10,"CCCCOC(C)c1c[nH]c2nc(Nc3ccc4cn[nH]c4c3)nc(NC3CC3)c12 (stereo not shown) [Example 41, 5-(1-butoxyethyl)-N4-cyclopropyl-N2-(1H-indazol-6-yl)-7H-pyrrolo[2,3-d]pyrimidine-2,4-diamine]",6.00 to 7.00
11,"CC(=O)N1CCN(c2ccc(Nc3ncc(F)c(N4CCN(C(=O)CC#N)CC4)n3)cc2)CC1 [Example 137, 3-(4-(2-(4-(4-acetylpiperazin-1-yl)phenylamino)-5-fluoropyrimidin-4-yl)piperazin-1-yl)-3-oxopropanenitrile]",< 6.00
12,"CNc1nc(Nc2ccc3cn[nH]c3c2)nc2[nH]cc(-c3cccnc3)c12 [Example 3, N2-(1H-indazol-6-yl)-N4-methyl-5-(pyridin-3-yl)-7H-pyrrolo[2,3-d]pyrimidine-2,4-diamine]",7.00 to 8.00
13,"O=C(O)CN1C(=O)CCc2cc(Nc3nc(NC4CCC4)c4cc[nH]c4n3)ccc21 [Example 70, 2-(6-(4-(cyclobutyamino)-7H-pyrrolo[2,3-d]pyrimidine-2-ylamino)-2-oxo-3,4-dihydroquinolin-1(2H)-yl)acetic acid]",7.00 to 8.00
14,"CC(=O)N1CCN(c2ccc(Nc3nc(NC4CC4)c4c(-c5ccncc5)c[nH]c4n3)cc2)CC1 [Example 4, 1-(4-(4-(4-(cyclopropylamino)-5-(pyridin-4-yl)-7H-pyrrolo[2,3-d]pyrimidin-2-ylamino)phenyl)piperazin-1-yl)ethanone]",7.00 to 8.00
15,"CN1C(=O)CCc2cc(Nc3nc(NCc4ccccc4)c4c(C#N)c[nH]c4n3)ccc21 [Example 115, 4-(Benzylamino)-2-(1-methyl-2-oxo-1,2,3,4-tetrahydroquinolin-6-ylamino)-7H-pyrrolo[2,3-d]pyrimidine-5-carbonitrile]",6.00 to 7.00
16,"NCC1CCN(c2nc(Nc3ccc(C(=O)O)cc3)ncc2F)CC1 [Example 131, 4-(4-(4-(aminomethyl)piperidin-1-yl)-5-fluoropyrimidin-2-ylamino)benzoic acid]",7.00 to 8.00

row,Compound,pIC50
1,"CC(=O)N1CCN(c2ccc(Nc3ncc(F)c(N4CCN(C(N)=O)CC4)n3)cc2)CC1 [Example 125, 4-(2-(4-(4-acetylpiperazin-1-yl)phenylamino)-5-fluoropyrimidin-4-yl)piperazine-1-carboxamide]",< 6.00
2,COC(=O)N(C)c1ccc(Nc2nc(NC3CC3)c3cc[nH]c3n2)cc1 [Example 73],6.00 to 7.00
3,"CC(=O)N(C)c1ccc(Nc2nc(NCCN)c3cc[nH]c3n2)cc1 [Example 64, N-(4-(4-(2-aminoethylamino)-7H-pyrrolo[2,3-d]pyrimidin-2-ylamino)phenyl)-N-methylacetamide]",6.00 to 7.00
4,"OCCNc1nc(Nc2ccc3cn[nH]c3c2)nc2[nH]ccc12 [Example 91, N^2-(1H-indazol-6-ylamino)-N^4-(2-hydroxyethyl)-7H-pyrrolo[2,3-d]pyrimidine-2,4-diamine]",7.00 to 8.00
5,"CC(=O)N1CCN(c2ccc(Nc3ncc(F)c(N4CCNCC4)n3)cc2)CC1 [Example 124, 1-(4-(4-(5-fluoro-4-(piperazin-1-yl)pyrimidin-2-ylamino)phenyl)piperazin-1-yl)ethanone]",< 6.00
6,"CC(=O)N1CCN(c2ccc(Nc3nc(N[C@H](C)CO)c4cc[nH]c4n3)cc2)CC1 [Example 98A, (R)-1-(4-(4-(4-(1-hydroxypropan-2-ylamino)-7H-pyrrolo[2,3-d]pyrimidin-2-ylamino)phenyl)piperazin-1-yl)ethanone]",6.00 to 7.00
7,"N#CCC(=O)N1CCCC(Nc2nc(Nc3ccc(C(N)=O)cc3)nc3[nH]ccc23)C1 (stereo not shown) [Example 110, 4-(4-(1-(2-cyanoacetyl)piperidin-3-ylamino)-7H-pyrrolo[2,3-d]pyrimidin-2-ylamino)benzamide]",< 6.00
8,"CC(=O)N1CCN(c2ccc(Nc3ncc(F)c(N4CCC(NC(N)=O)CC4)n3)cc2)CC1 [Example 129, 1-(1-(2-(4-(4-acetylpiperazin-1-yl)phenylamino)-5-fluoropyrimidin-4-yl)piperidin-4-yl)urea]",< 6.00
9,"CC(=O)N1CCN(c2ccc(Nc3ncc(F)c(N4CCC(NC(=O)OCc5ccccc5)CC4)n3)cc2)CC1 [Example 127, Benzyl 1-(2-(4-(4-acetylpiperazin-1-yl)phenylamino)-5-fluoropyrimidin-4-yl)piperidin-4-ylcarbamate]",< 6.00
10,"NS(=O)(=O)c1cccc(Nc2nc(Nc3ccc(N4CCNCC4)cc3)nc3[nH]ccc23)c1 [Example 96B, 3-(2-(4-(piperazin-1-yl)phenylamino)-7H-pyrrolo[2,3-d]pyrimidin-4-ylamino)benzenesulfonamide]",7.00 to 8.00
11,"CC(=O)c1c[nH]c2nc(Nc3ccc4cn[nH]c4c3)nc(NC3CC3)c12 [Example 42, 1-(2-(1H-indazol-6-ylamino)-4-(cyclopropylamino)-7H-pyrrolo[2,3-d]pyrimidin-5-yl)ethanone]",6.00 to 7.00
12,"C[C@H](CO)Nc1nc(Nc2ccc(N3CCNCC3)cc2)nc2[nH]ccc12 [Example 98B, (R)-2-(2-(4-(piperazin-1-yl)phenylamino)-7H-pyrrolo[2,3-d]pyrimidin-4-ylamino)propan-1-ol]",6.00 to 7.00
13,"CC(=O)N1CCN(c2ccc(Nc3nc(N4CCCC(C(N)=O)C4)c4nc[nH]c4n3)cc2)CC1 (stereo not shown) [Example 118, 1-(2-(4-(4-acetylpiperazin-1-yl)phenylamino)-9H-purin-6-yl)piperidine-3-carboxamide]",6.00 to 7.00
14,"N#Cc1c[nH]c2nc(Nc3ccc(C(N)=O)cc3)nc(NC3CC3)c12 [Example 104, 4-(5-cyano-4-(cyclopropylamino)-7H-pyrrolo[2,3-d]pyrimidin-2-ylamino)benzamide]",7.00 to 8.00
15,"CC(=O)N(C)c1ccc(Nc2nc(Nc3cccc(S(N)(=O)=O)c3)c3cc[nH]c3n2)cc1 [Example 68, N-(4-(4-(3-aminosulfonyl-phenylamino)-7H-pyrrolo[2,3-d]pyrimidin-2-ylamino)phenyl)-N-methylacetamide]",6.00 to 7.00

# Same assay, conditions: Table 4; 1 nM SYK, 100 μM ATP; read-out: syk IC50
row,Compound,pIC50
1,"CC(=O)N1CCN(c2ccc(Nc3ncc(F)c(N4CCCCC4CN)n3)cc2)CC1 (stereo not shown) [Example 34, 1-(4-(4-(4-(2-(aminomethyl)piperidin-1-yl)-5-fluoropyrimidin-2-ylamino)phenyl)piperazin-1-yl)ethanone]",< 6.00
2,"CC(=O)N1CCN(c2ccc(Nc3ncc(C(N)=O)c(N4CCC(CN)CC4)n3)cc2)CC1 [Example 25, 2-(4-(4-acetylpiperazin-1-yl)phenylamino)-4-(4-(aminomethyl)piperidin-1-yl)pyrimidine-5-carboxamide]",< 6.00
3,CC(=O)N1CCN(c2ccc(Nc3ncc(C(N)=O)c(N4CCCCC4CCO)n3)cc2)CC1 (stereo not shown) [2-(4-(4-acetylpiperazin-1-yl)phenylamino)-4-(2-(2-hydroxyethyl)piperidin-1-yl)pyrimidine-5-carboxamide],< 6.00
4,"NCC1CCN(c2nc(Nc3ccc(S(N)(=O)=O)cc3)ncc2F)CC1 [Example 32, 4-(4-(4-(aminomethyl)piperidin-1-yl)-5-fluoropyrimidin-2-ylamino)benzenesulfonamide]",7.00 to 8.00
5,"CC(=O)N1CCN(c2ccc(Nc3nc(N4CC[C@H](O)C4)c4cc[nH]c4n3)cc2)CC1 [Example 13, (S)-1-(4-(4-(4-(3-hydroxypyrrolidin-1-yl)-7H-pyrrolo[2,3-d]pyrimidin-2-ylamino)phenyl)piperazin-1-yl)ethanone]",< 6.00
6,"NC(=O)C1CCN(c2nc(Nc3ccc(N4CCNCC4)cc3)nc3[nH]ccc23)CC1 [Example 23, 1-(2-(4-(piperazin-1-yl)phenylamino)-7H-pyrrolo[2,3-d]pyrimidin-4-yl)piperidine-4-carboxamide]",< 6.00

# Reference: patent publication US9139581B2 (PORTOLA PHARMACEUTICALS, INC., priority 2008, dated 2015)
